Where “and” joins values, the source holds several entries; their conditions need not be identical. Equal values may be shown once.
How the values were obtained:
[1] = test system: PPARγ-null 3T3-L1 clones rescued with wild-type mPPARγ; test: Insulin-stimulated glucose uptake in PPARγ-null 3T3-L1 clones rescued with wild-type mPPARγ; type: cell-based, mouse; settings: for insulin-stimulated glucose uptake, Fig 1P left panel replicates: rescued with wild-type mPPARγ
Protocol: Gene editing was performed in 3T3-L1 preadipocytes using the clustered regularly interspaced short palindromic repeats (CRISPR)/Cas9 system. Two single-guide RNAs (sgRNA) (Appendix Table S5) targeting exon 6 of mouse Pparγ were designed using a web-based design tool (http://crispr.mit.edu/). These oligonucleotides were cloned into the pSurrogate reporter and pAll-Cas9.Ppuro vector obtained from Academia Sinica, Taiwan. The pSurrogate reporter contains an EGFP and an out-of-frame mCherry downstream of the sgRNA; the pAll-Cas9.Ppuro vector expresses Cas9 nuclease and sgRNA. Once a double-strand breaking at the target site in pSurrogate reporter plasmid was created by Cas9, insertions and deletions (indels) could be introduced at the cleaved site. The indels cause frameshifts and result in the expression of the mCherry gene. 3T3-L1 preadipocytes were co-transfected with pSurrogate reporter and pAll-Cas9.Ppuro vectors at 80-90% confluency using PolyJet™ transfection reagent (cat. no. SL100688, SignaGen Laboratories, USA). Two days after transfection, EGFP/mCherry double-positive cells were enriched by fluorescent-activated cell sorting. Single cells were isolated and expanded. The genomic DNA was amplified by PCR and sequenced to confirm the knockout cell lines. The primer sequences are shown in Appendix Table S5.
The mPPARγ C313A DNA sequence was amplified from pCMV6-Pparg C313A and subcloned into the pLVX-IRES-Neo vector with XhoI/NotI restriction sites. The lentiviral expression plasmids, pMD.G, and pCMVΔR8.91 (RNAi Core, Academia Sinica, Taiwan), were co-transfected into HEK293T cells. […] HSP70 was probed with an anti-HSP70 antibody (cat. no. ab45133, Abcam) as a loading control.
Differentiated 3T3-L1 cells were starved with serum-free DMEM containing 0.2% BSA (cat. no. A9647, Sigma-Aldrich). […] Uptake of 2DG was terminated by rapidly removing medium and washing with ice-cold PBS three times. Cells were lysed with 0.1% SDS, and the radioactivity was measured using a liquid scintillation counter. Insulin-mediated glucose uptake was calculated by subtracting insulin-treated glucose uptake with basal glucose uptake.

[2] = test system: 3T3-L1 adipocytes; test: Intracellular 15-keto-PGE2 content of 3T3-L1 cells (LC-MS/MS); type: cell-based, mouse
Protocol: The lysate was centrifuged at 300 × g for 5 min to remove cellular debris. The supernatant was transferred to a new tube. The C18 SPE cartridge was sequentially activated with 2 mL methanol and 2 mL ddH2O. The lower-layer sample was transferred to the C18 SPE cartridge. Once the lysate passed the cartridge, the SPE cartridge was washed with 2 mL 15% methanol and 5 mL ddH2O. The sample was then eluted with 5 mL HPLC-degree methanol and aliquoted into new 2-mL tubes. The elute was air-dried using a SpeedVac system and stored at −80 °C. The dried samples were reconstituted with 60 μL methanol before analysis.

[3] = test system: HFHSD-fed obese C57BL6/J mice; test: Adipocyte size and number in perigonadal fat (H&E stain); type: in vivo, mouse; settings: vs vehicle
Description: Tissues were fixed in 4% paraformaldehyde and then embedded in paraffin before sectioning and staining. The stained sections were scanned and analyzed using a MIRAX viewer (http://www.zeiss.de/mirax) and Image J software (http://rsbwed.nih.gov/ij/).

[4] = test system: HFHSD-fed obese C57BL6/J mice; test: Fasting glucose in HFHSD-fed mice; type: in vivo, mouse; design: Fasting glucose, Average / Fasting glucose (individual mouse): unit not given here; settings: for Fasting glucose, Average / Fasting glucose (individual mouse): Figure 5K; for Fasting glucose, Average: 100 mg/kg/day; for Fasting glucose (individual mouse): BPRPT0245 group
Protocol: Ptgr2^+/+ and Ptgr2^−/− mice were created by the Transgenic Mouse Model Core Facility of the National Core Facility for Biopharmaceuticals, Ministry of Science and Technology, Taiwan and the Animal Resources Laboratory of National Taiwan University Centers of Genomic and Precision Medicine. C57BL6/J mice were purchased from National Laboratory Animal Center. All animal experiments were performed according to institutional ethical guidelines and were approved by the Institutional Animal Care and Use Committee (IACUC) of National Taiwan University Medical College (IACUC No.: 20140456). All mice were housed under standard conditions at 23 °C and 12/12 h. light/dark (7 AM–7 PM) cycle in animal centers of the National Taiwan University Medical College, which is accredited by the Association for Assessment and Accreditation of Laboratory Animal Care International (AAALAC). Mice were provided shelters and sticks weekly. We used adequate anesthetic procedure to reduce pain, suffering and distress according to our animal center regulation. We reported expected or unexpected adverse events to the veterinarian of our animal center. The humane endpoints include 20% weight loss, rough hair coat, hunched posture, lethargy or persistent, or any condition interfering with eating or drinking. Eight-week-old male mice were fed on either a high-fat high-sucrose diet (HFHSD) (cat. no. D12331, Research Diets) or a regular chow diet (cat no. 5001, Lab Diet). BPRPT0245 was dissolved 3% dimethylacetamide and 10% cremophor in water and administered daily to HFHSD-fed obese C57BL6/J mice by oral gavage (100 mg/kg/day).

Row | SMILES | Fasting glucose, Average ([4]; week 0) | Fasting glucose, Average ([4]; week 2) | Fasting glucose, Average ([4]; week 4) | Fasting glucose, Average ([4]; week 6) | Fasting glucose, Average ([4]; week 8) | Fasting glucose, Average ([4]; week 10) | Fasting glucose, Average ([4]; week 12) | Fasting glucose, Average ([4]; week 14) | Fasting glucose, Average ([4]; week 16) | Fasting glucose, Average ([4]; week 18) | Fasting glucose, Average ([4]; week 20) | Fasting glucose, Average ([4]; week 22) | Fasting glucose, Average ([4]; week 24) | also measured
1 | CCCCCC(=O)CC[C@H]1[C@H](O)CC(=O)[C@@H]1C/C=C\CCCC(=O)O [13,14-dihydro-15-keto-PGE2] |  |  |  |  |  |  |  |  |  |  |  |  |  | insulin-stimulated glucose uptake, Fig 1P left panel replicates ([1]; 1314-dihydro-15kPGE2 5): 0.5765 and 0.8817 and 0.585 and 1.089
2 | CCCCCC(=O)/C=C/[C@H]1[C@H](O)CC(=O)[C@@H]1C/C=C\CCCC(=O)O [15-keto-PGE2, 15-keto-prostaglandin E2] |  |  |  |  |  |  |  |  |  |  |  |  |  | increase of intracellular 15-keto-PGE2 levels ([2]; exogenously added 15-keto-PGE2 10–20 μM, 3T3-L1 adipocytes): 1.25 to 1.78 fold; insulin-stimulated glucose uptake, Fig 1P left panel replicates ([1]; 15kPGE2 1): 0.8065 and 0.6857 and 0.06677 and 0.8595; insulin-stimulated glucose uptake, Fig 1P left panel replicates ([1]; 15kPGE2 5): 1.281 and 2.22 and 0.9527 and 1.646; insulin-stimulated glucose uptake, Fig 1P left panel replicates ([1]; 15kPGE2 10): 2.206 and 2.06 and 1.8139 and 2.125; insulin-stimulated glucose uptake, PPARγ-null clone rescued with wild-type mPPARγ ([1]; clone #1296): enhanced insulin-stimulated glucose uptake in clone # 1296 when rescued with wild-type mPPARγ; adipocyte size ([3]; 40 mg/kg/day ip): smaller; number of adipocytes ([3]; 40 mg/kg/day ip): no difference
3 | Cc1[nH]c2nc(C(C)N3CCN(c4ccccc4)CC3)nn2c(=O)c1Cc1ccc(F)cc1 (stereo not drawn) [BPRPT245] | 172.4 | 215 | 172.4 | 168.6 | 182.6 | 183.2 | 184.933 | 181.467 | 186.667 | 173.933 | 159.8 | 158.933 | 164.4 | 
4 | Cc1[nH]c2nc(C(C)N3CCN(c4ccccc4)CC3)nn2c(=O)c1Cc1ccc(F)cc1 (stereo not drawn) [BPRPT0245] | 172.4 | 215 | 172.4 | 168.6 | 182.6 | 183.2 | 184.933 | 181.467 | 186.667 | 173.933 | 159.8 | 158.933 | 164.4 | intracellular 15-keto-PGE2 concentrations ([2]; differentiated 3T3-L1 adipocytes treated with BPRPT0245): increased intracellular 15-keto-PGE2 concentrations in a dose-dependent manner; adipocyte number ([3]; 100 mg/kg/day oral): not changed; adipocyte size ([3]; 100 mg/kg/day oral): reduced; fasting plasma glucose ([4]; 100 mg/kg/day oral, HFHSD-fed mice, vs vehicle): lowered fasting plasma glucose; Fasting glucose (individual mouse) ([4]; week 0): 140 and 191 and 194 and 229 and 230 and 148 and 190 and 111 and 179; Fasting glucose (individual mouse) ([4]; week 2): 178 and 220 and 216 and 291 and 182 and 199 and 225 and 148; Fasting glucose (individual mouse) ([4]; week 4): 162 and 198 and 190 and 178 and 194 and 163 and 177; Fasting glucose (individual mouse) ([4]; week 6): 151 and 215 and 171 and 164 and 188 and 139 and 181; Fasting glucose (individual mouse) ([4]; week 8): 164 and 212 and 172 and 202 and 171 and 198 and 219; Fasting glucose (individual mouse) ([4]; week 10): 224 and 198 and 153 and 169 and 162 and 150 and 171; Fasting glucose (individual mouse) ([4]; week 12): 187 and 219 and 140 and 175 and 200 and 156 and 161 and 177; Fasting glucose (individual mouse) ([4]; week 14): 220 and 210 and 169 and 202 and 174 and 149 and 142; Fasting glucose (individual mouse) ([4]; week 16): 212 and 199 and 167 and 164 and 191 and 183 and 171; Fasting glucose (individual mouse) ([4]; week 18): 179 and 178 and 134 and 146 and 197 and 201 and 147 and 181 and 202; Fasting glucose (individual mouse) ([4]; week 20): 179 and 154 and 153 and 170 and 174 and 220 and 131 and 171 and 134; Fasting glucose (individual mouse) ([4]; week 22): 195 and 156 and 123 and 149 and 148 and 163 and 132 and 201 and 161; Fasting glucose (individual mouse) ([4]; week 24): 119 and 164 and 166 and 168 and 204 and 174

Source: article PMC12081876, “Identification of PTGR2 inhibitors as a new therapeutic strategy for diabetes and obesity” (EMBO Molecular Medicine, 2025)
